Measured values published in US20190352276A1, “INHIBITORS OF BRUTON'S TYROSINE KINASE” (Joint Stock Company "Biocad", priority 2016, published 2019).
Like-named read-outs stand apart in the source and are kept apart here.

What was measured:
[1] = Permeability through the monolayer of Caco-2 cells; type: in vitro ADME; conditions: human; for Papp A→B at 2 h, 10 μM / Papp B→A at 2 h, 10 μM: 2 h at 37° C.; for efflux ratio at 2 h, 10 μM: read-out: efflux (Papp B-A/Papp A-B)
How it was run: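 Bidirectional transport measured over 7200 s with 10 μM compound, using an apical buffer at pH 6.5 and a basolateral Hanks/HEPES/glucose buffer at pH 7.4 containing 1% BSA. Monolayers were 21-day Caco-2 cultures verified with Lucifer Yellow. Chamber concentrations quantified chromatographically to derive Papp in both directions and their B-A/A-B efflux ratio.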

[2] = molecular target: T1, recombinant Btk kinase enzyme (Homo sapiens, UniProt Q06187); test: In vitro inhibition of Btk kinase activity (ADP-Glo); type: biochemical; conditions: read-out: IC50 kinase BTK
T1 construct: purchased SignalChem B10-10H
How it was run: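 IC50 obtained by four-parameter logistic fitting of ADP-Glo luminescence, which reports ADP generated by the kinase. Reaction: recombinant Btk enzyme, 50 μM ATP, 0.5 mg/mL Poly(4:1 Glu,Tyr) peptide, incubated 180 minutes at 37° C. with test compound.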

TEC = molecular target: T2, TEC (Homo sapiens, UniProt P42680); test: In vitro kinase panel: TEC; type: biochemical; conditions: Table 9 kinase panel
T2 construct: purchased SignalChem T03-10G
T2 sequence (P42680 1-631): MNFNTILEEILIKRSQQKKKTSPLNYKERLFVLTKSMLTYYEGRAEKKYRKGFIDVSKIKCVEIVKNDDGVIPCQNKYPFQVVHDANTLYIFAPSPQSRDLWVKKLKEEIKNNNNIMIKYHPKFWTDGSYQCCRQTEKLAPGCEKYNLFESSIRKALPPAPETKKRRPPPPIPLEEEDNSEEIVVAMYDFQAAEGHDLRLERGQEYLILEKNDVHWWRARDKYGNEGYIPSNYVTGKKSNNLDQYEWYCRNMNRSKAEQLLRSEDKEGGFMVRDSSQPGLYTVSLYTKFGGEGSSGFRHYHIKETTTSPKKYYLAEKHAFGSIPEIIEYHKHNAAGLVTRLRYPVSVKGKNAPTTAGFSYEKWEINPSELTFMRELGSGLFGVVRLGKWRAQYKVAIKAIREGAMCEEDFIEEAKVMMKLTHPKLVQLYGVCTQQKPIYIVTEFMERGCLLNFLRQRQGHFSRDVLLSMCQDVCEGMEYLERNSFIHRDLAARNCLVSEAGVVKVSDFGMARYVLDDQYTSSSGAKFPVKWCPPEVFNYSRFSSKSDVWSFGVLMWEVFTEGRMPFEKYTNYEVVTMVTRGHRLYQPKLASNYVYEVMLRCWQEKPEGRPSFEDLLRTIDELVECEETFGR
Procedure: The measurements were carried out in a 25 μL reaction volume using a 96-well plate (Corning, #3642). The kinase enzyme and inhibitor were pre-incubated for 10 minutes in the reaction buffer containing 25 mM of MOPS (pH 7.2), 12.5 mM of 0-glycerophosphate, 27 mM of MgCl2, 2 mM of MnCl2, 5 mM of EGTA, 2 mM of EDTA, 0.3 mM of DTT, and 1.2 mg/mL of bovine serum albumin. Staurosporine (Abcam Biochemicals, ab146588) was used as a reference inhibitor and 0.1% DMSO in the reaction buffer—as a negative control. The solution of 0.5 mg/mL peptide substrate and 50 &M ATP in the same buffer were added; the solution was incubated for 180 minutes at 37° C. To detect the amount of ATP taken up during the kinase reaction, the equivalent amount of ADP (from the ADP Glo Detection Kit (Promega, #V9101)) was used according to the protocol. The reaction mixture was equilibrated to room temperature. 25 µL of ADP-Glo Reagent were added into each well; the plate was incubated for 40 minutes. 50 μL of Kinase Detection Reagent were added; the plate was incubated for 30 minutes. The luminescence was measured with multimode plate reader (Tecan Infinite M200Pro, Switzerland). IC50 values were calculated using Magellan 7.2 software (Tecan, Switzerland) approximating experimental points by four-parameter logistic model with the optimization by Levenberg-Marquardt.
For active compounds selected by screening using the target enzyme BTK, the values of IC50 were determined on a kinase panel: EGFR (SignalChem, #E10-11G), ITK (SignalChem, #I13-10G) and TEC (SignalChem, #T03-10G).

[3] = Chemical stability in artificial gastric fluid (SGF without enzymes); conditions: 10 μM in SGF without enzymes, pH=1.4, 37° C.
Procedure: The initial candidate solution (10 mM in DMSO) was diluted with the working solution of SGF to the concentration of 10 μm (test solution). The test solution was incubated in a dry block heater at 37° C. We determined peak areas of the compounds corresponding to the start of the test (before incubating) and the end of the test (after incubating in a dry block heater at 37° C.) by HPLC using Agilent1200 chromatograph (Agilent, USA). We used gradient elution (1 mL/min flow rate). We determined amount of substance in the sample in % after incubation.
We evaluated the stability of the compounds.

T1 sequence (Q06187 whole entry): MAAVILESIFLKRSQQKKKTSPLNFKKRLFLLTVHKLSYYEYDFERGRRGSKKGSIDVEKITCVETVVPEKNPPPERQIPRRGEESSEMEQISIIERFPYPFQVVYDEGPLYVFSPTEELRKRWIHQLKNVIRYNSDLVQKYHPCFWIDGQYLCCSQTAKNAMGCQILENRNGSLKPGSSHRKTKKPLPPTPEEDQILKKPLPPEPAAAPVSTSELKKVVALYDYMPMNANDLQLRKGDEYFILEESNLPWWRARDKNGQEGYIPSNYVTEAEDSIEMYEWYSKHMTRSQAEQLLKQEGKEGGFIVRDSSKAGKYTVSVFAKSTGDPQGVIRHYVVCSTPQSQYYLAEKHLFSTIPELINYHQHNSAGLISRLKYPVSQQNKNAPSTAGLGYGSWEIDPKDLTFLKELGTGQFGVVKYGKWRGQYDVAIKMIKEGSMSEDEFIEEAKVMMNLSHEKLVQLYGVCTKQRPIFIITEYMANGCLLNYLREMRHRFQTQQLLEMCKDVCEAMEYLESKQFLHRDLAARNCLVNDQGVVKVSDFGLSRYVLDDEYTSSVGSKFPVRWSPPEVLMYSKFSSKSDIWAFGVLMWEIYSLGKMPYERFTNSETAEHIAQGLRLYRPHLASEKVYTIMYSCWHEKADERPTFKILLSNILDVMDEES

Row | SMILES | Papp A→B at 2 h, 10 μM [1] | Papp B→A at 2 h, 10 μM [1] | efflux ratio at 2 h, 10 μM [1] | IC50 ([2]; Table 9 kinase panel) | IC50 ([2]; Table 8, ADP-Glo) | IC50 (TEC) | Amount of substance in the sample in % (chemical stability) [3]
1 | C=CC(=O)N1CCC[C@@H](n2nc(-c3ccc(Oc4ccncc4)cc3)c3cncc(Cl)c32)C1 [BCD-BTK-125, (R)-1-(1-acryloylpiperidin-3-yl)-7-chloro-3-(4-(pyridin-4-yloxy)phenyl)-1H-pyrazolo[4,3-c]pyridine] | 21 ×10⁻⁶ cm/s | 13.2 ×10⁻⁶ cm/s | 0.6 | 109 nM |  |  | 
2 | C=CC(=O)N1CCC[C@@H](n2nc(-c3ccc(Oc4ccncc4)cc3)c3c(N)ncc(Cl)c32)C1 [BCD-BTK-139, (R)-1-(1-acryloylpiperidin-3-yl)-7-chloro-3-(4-(pyridin-4-yloxy)phenyl)-1H-pyrazolo[4,3-c]pyridin-4-amine] | 52.2 ×10⁻⁶ cm/s | 5.7 ×10⁻⁶ cm/s | 0.1 | 0.85 nM |  |  | 
3 | C=CC(=O)N1CCC[C@@H](n2nc(-c3ccc(C(=O)Nc4ccccn4)cc3)c3cncc(Cl)c32)C1 [BCD-BTK-201] |  |  |  |  | 19.1 nM | 55.2 nM | 
4 | C=CC(=O)N1CCC[C@@H](n2nc(-c3ccc(Oc4ccncc4C#N)cc3)c3cncc(Cl)c32)C1 [BCD-BTK-202, (R)-4-(4-(1-(1-acryloylpiperidin-3-yl)-7-chloro-1H-pyrazolo[4,3-c]pyridin-3-yl)phenoxy)nicotinonitrile] | 20.3 ×10⁻⁶ cm/s | 1.91 ×10⁻⁶ cm/s |  |  | 74.6 nM | > 500 nM | 
5 | C=CC(=O)N1CCC[C@@H](n2nc(-c3ccc(Oc4cccnc4C(N)=O)cc3)c3cncc(Cl)c32)C1 [BCD-BTK-220, 3-(4-{7-chloro-1-[(3R)-1-(prop-2-enoyl)piperidin-3-yl]-1H-pyrazolo[4,3-c]pyridin-3-yl}phenoxy)pyridine-2-carboxamide] |  |  |  |  | 53.5 nM | > 100 nM | 100%
6 | C=CC(=O)N1CCC[C@@H](n2nc(-c3ccc(Oc4cccnc4C#N)cc3)c3cncc(F)c32)C1 [BCD-BTK-230, (R)-3-(4-(1-(1-acryloylpiperidin-3-yl)-7-fluoro-1H-pyrazolo[4,3-c]pyridin-3-yl)phenoxy)picolinonitrile] | 26.5 ×10⁻⁶ cm/s | 2.68 ×10⁻⁶ cm/s | 0.1 |  | 10.5 nM | > 200 nM | 99.9%
7 | C=CC(=O)N1CCC[C@@H](n2nc(-c3ccc(C(=O)Nc4ccccn4)cc3)c3c(N)ncc(C#N)c32)C1 [BCD-BTK-234, (R)-4-(1-(1-acryloylpiperidin-3-yl)-4-amino-7-cyano-1H-pyrazolo[4,3-c]pyridin-3-yl)-N-(pyridine-2-yl)benzamide] | 8.2 ×10⁻⁶ cm/s | 9.2 ×10⁻⁶ cm/s | 1.1 |  | 1.17 nM | 14.8 nM | 100%
8 | C=CC(=O)N1CCC[C@@H](n2nc(-c3ccc(Oc4ccncc4)cc3)c3c(N)ncc(OC)c32)C1 [BCD-BTK-239, (R)-1-(1-acryloylpiperidin-3-yl)-4-amine-7-methoxy-3-(4-(pyridin-4-yloxy)phenyl)-1H-pyrazolo[4,3-c]pyridine] |  |  |  |  | 2.38 nM | 6 nM | 100%
9 | C=CC(=O)N1CCC[C@@H](n2nc(-c3ccc(C(=O)Nc4ccccn4)cc3)c3c(N)ncc(OC)c32)C1 [BCD-BTK-240, (R)-4-(1-(1-acryloylpiperidin-3-yl)-4-amino-7-methoxy-1H-pyrazolo[4,3-c]pyridin-3-yl)-N-(pyridin-2-yl)benzamide] | 18.2 ×10⁻⁶ cm/s | 11.1 ×10⁻⁶ cm/s | 0.61 |  | 2.25 nM | 3.81 nM | 100%
10 | C=CC(=O)N1CCC[C@@H](n2nc(-c3ccc(C(=O)Nc4ccccn4)cc3)c3c(N)nccc32)C1 [BCD-BTK-242, (R)-4-(1-(1-acryloylpiperidin-3-yl)-4-amino-1H-pyrazolo[4,3-c]pyridin-3-yl)-N-(pyridin-2-yl)benzamide] |  |  |  |  | 1.77 nM | 6.61 nM | 100%
11 | C=CC(=O)N1CCC[C@@H](n2nc(-c3ccc(C(=O)Nc4cc(C(F)(F)F)ccn4)cc3)c3c(N)ncc(Cl)c32)C1 [BCD-BTK-251, (R)-4-(1-(1-acryloylpiperidin-3-yl)-4-amino-7-chloro-1H-pyrazolo[4,3-c]pyridin-3-yl)-N-(4-(trifluoromethyl)pyridin-2-yl)benzamide] | 8.3 ×10⁻⁶ cm/s | 1.5 ×10⁻⁶ cm/s | 0.2 |  | 2.71 nM | 7.21 nM | 
12 | C=CC(=O)N1CCC[C@@H](n2nc(-c3ccc(C(=O)Nc4cc(C(F)(F)CCC)ccn4)cc3)c3cncc(Cl)c32)C1 [BCD-BTK-252, (R)-4-(1-(1-acryloylpiperidin-3-yl)-7-chloro-1H-pyrazolo[4,3-c]pyridin-3-yl)-N-(4-(1,1-difluorobutyl)pyridin-2-yl)benzamide] |  |  |  |  | 14.6 nM | > 100 nM | 
13 | C=CC(=O)N1CCC[C@@H](n2nc(-c3ccc(C(=O)Nc4ncccc4F)cc3)c3c(N)ncc(C#N)c32)C1 [BCD-BTK-258, 4-{4-amino-7-cyano-1-[(3R)-1-(prop-2-enoyl)piperidin-3-yl]-1H-pyrazolo[4,3-c]pyridin-3-yl}-N-(3-fluoropyridin-2-yl)benzamide] |  |  |  |  | 1.17 nM | 2.92 nM | 100%
14 | C=CC(=O)N1CCC[C@@H](n2nc(-c3cnc(C(=O)Nc4cc(C(F)(F)CCC)ccn4)nc3)c3cncc(Cl)c32)C1 [BCD-BTK-292, (R)-5-(1-(1-acryloylpiperidin-3-yl)-7-chloro-1H-pyrazolo[4,3-c]pyridin-3-yl)-N-(4-(1,1-difluorobutyl)pyridin-2-yl)pyrimidine-2-carboxamide] | 11.6 ×10⁻⁶ cm/s | 0.07 ×10⁻⁶ cm/s |  |  | 7.34 nM | 77.8 nM | 
